Measured values: paper PMC9917201, “Enhanced Antibacterial Activity of Substituted Derivatives of NCR169C Peptide” (International Journal of Molecular Sciences, 2023)
Converted amounts (≈) assume the structure as drawn. Like-named read-outs stand apart in the source and are kept apart here. Non-standard residues stand in square brackets, D forms with d. Residues, ends and D or L forms follow the SMILES beside them. ξ: configuration not given here. ξTrp(7-aza) = NC(Cc1c[nH]c2ncccc12)C(=O)O

Assays:
[1] = tested on: Staphylococcus aureus (HNCMO112011); type: cell-based
Source text: (§1) The bacterial strains for the antimicrobial assay were obtained from the ATCC (American Type Culture Collection, Manassas, VA, USA) and NCTC (National Collection of Type Cultures, Salisbury, UK). Gram-negative strains were Pseudomonas aeruginosa (ATCC 27853), Escherichia coli (ATCC 8739, ATCC 35218, and ATCC 25922), Salmonella enterica (ATCC 13076), Klebsiella pneumoniae (NCTC 13440), Acinetobacter baumannii (ATCC 17978) and the Gram-positive strains were Enterococcus faecalis (ATCC 29212), Listeria monocytogenes (ATCC 19111), and Staphylococcus aureus (HNCMO112011 and ATCC 25923).
(§2) Determination of antibacterial activity for the peptides was carried out by utilizing a minimum bactericidal concentration (MBC) bioassay. Synthesized peptides were dissolved in sterile water and used from 25 to 0.125 μM in 2-fold dilution series and incubated with ~10^7 log phase bacteria in Potassium-Phosphate Buffer (PPB, pH: 7.4) for three hours as described earlier. After that, 5 μl of each sample was placed on LB agar and the growth of bacteria was monitored after overnight incubation at 37 °C. The lowest concentration of the antimicrobial agents that completely eliminated viable bacteria was considered the minimal bactericidal concentration (MBC).

[2] = tested on: Listeria monocytogenes (ATCC 19111); type: cell-based
Source text: as §1, §2

[3] = tested on: Enterococcus faecalis (ATCC 29212); type: cell-based
Source text: as §1, §2

[4] = tested on: tested bacteria (ESKAPE pathogens, Listeria monocytogenes, Salmonella enterica); type: cell-based
Source text: as §1, §2

[5] = tested on: Salmonella enterica (ATCC 13076); type: cell-based
Source text: as §1, §2

[6] = tested on: Klebsiella pneumoniae (NCTC 13440); type: cell-based
Source text: as §1, §2

[7] = tested on: Pseudomonas aeruginosa (ATCC 27853); type: cell-based
Source text: as §1, §2

[8] = tested on: Escherichia coli (ATCC 8739); type: cell-based
Source text: as §1, §2

[9] = tested on: Acinetobacter baumannii (ATCC 17978); type: cell-based
Source text: as §1, §2

[10] = tested on: S. aureus (ATCC 25923); type: cell-based, Staphylococcus aureus; conditions: ATCC 25923, 3 h, pH 7.4
Source text: as §1, §2

[11] = tested on: E. coli (ATCC 25922); type: cell-based, Escherichia coli; conditions: ATCC 25922, 3 h, pH 7.4
Source text: as §1, §2

[12] = tested on: E. coli (ATCC 35218); type: cell-based, Escherichia coli; conditions: ATCC 35218, 3 h, pH 7.4
Source text: as §1, §2

[13] = Listeria monocytogenes ATCC 19111, ~10^7 log phase bacteria, 3 h in PPB pH 7.4, peptide 25 to 0.125 μM 2-fold series, plated on LB agar, overnight 37 °C
[14] = Enterococcus faecalis ATCC 29212, ~10^7 log phase bacteria, 3 h in potassium-phosphate buffer (PPB) pH 7.4, peptide 25 to 0.125 μM 2-fold series, 5 μl on LB agar, overnight 37 °C

Row | Molecule | Minimal bactericidal concentration (MBC) S. a. ([1]; HNCMO112011, 3 h, pH 7.4) | Minimal bactericidal concentration (MBC) L. m. [2, 13] | Minimal bactericidal concentration (MBC) E. f. [3, 14] | Minimal bactericidal concentration (MBC) S. e. ([5]; ATCC 13076, 3 h, pH 7.4) | Minimal bactericidal concentration (MBC) K. p. ([6]; NCTC 13440, 3 h, pH 7.4) | Minimal bactericidal concentration (MBC) P. a. ([7]; ATCC 27853, 3 h, pH 7.4) | Minimal bactericidal concentration (MBC) E. c. ([8]; ATCC 8739, 3 h, pH 7.4) | Minimal bactericidal concentration (MBC) A. b. ([9]; ATCC 17978, 3 h, pH 7.4) | other results
1 | CC[C@H](C)[C@H](NC(=O)[C@H](CCCCN)NC(=O)[C@H](Cc1ccccc1)NC(=O)[C@H](CC(C)C)NC(=O)[C@@H]1CCCN1C(=O)[C@H](CCCCN)NC(=O)[C@H](CCCCN)NC(=O)[C@H](CO)NC(=O)[C@@H](N)CCCCN)C(=O)N[C@@H](Cc1c[nH]c2ccccc12)C(=O)N[C@@H](CCCCN)C(=O)N[C@@H](CO)C(=O)N[C@H](C(=O)N[C@@H](CCC(=O)O)C(=O)N[C@@H](CC(N)=O)C(=O)N[C@H](C(=O)N[C@@H](CO)C(=O)N[C@H](C(=O)N[C@@H](CC(C)C)C(=O)NC(Cc1c[nH]c2ncccc12)C(=O)N[C@@H](Cc1ccc(O)cc1)C(=O)N[C@@H](CCCCN)C(N)=O)C(C)C)C(C)C)C(C)C (some centres unmarked) [NCR169C17–38C12,17/S-20W^7-Aza I] (H-KSKKPLFKIWKSVENVSVL[ξTrp(7-aza)]YK-NH2; N-terminus assumed) | 6.3 µM (≈ 17.1 µg/mL) | 25 µM (≈ 67.7 µg/mL) | 25 µM (≈ 67.7 µg/mL) | 6.3 µM (≈ 17.1 µg/mL) | 6.3 µM (≈ 17.1 µg/mL) | 6.3 µM (≈ 17.1 µg/mL) | 3.1 µM (≈ 8.4 µg/mL) | 6.3 µM (≈ 17.1 µg/mL) | MBC against most or all of the tested bacteria ([4]; 3 h, pH 7.4): 6.3 µM
2 | CC[C@H](C)[C@H](NC(=O)[C@H](CCCCN)NC(=O)[C@H](Cc1ccccc1)NC(=O)[C@H](CC(C)C)NC(=O)[C@@H]1CCCN1C(=O)[C@H](CCCCN)NC(=O)[C@H](CCCCN)NC(=O)[C@H](CO)NC(=O)[C@@H](N)CCCCN)C(=O)N[C@@H](Cc1c[nH]c2ccccc12)C(=O)N[C@@H](CCCCN)C(=O)N[C@@H](CO)C(=O)N[C@H](C(=O)N[C@@H](CCC(=O)O)C(=O)N[C@@H](CC(N)=O)C(=O)N[C@H](C(=O)N[C@@H](CO)C(=O)N[C@H](C(=O)N[C@@H](CC(C)C)C(=O)N[C@@H](Cc1c[nH]c2ccccc12)C(=O)N[C@@H](Cc1ccc(O)cc1)C(=O)N[C@@H](CCCCN)C(N)=O)C(C)C)C(C)C)C(C)C [NCR169C17–38C12,17/S] (H-KSKKPLFKIWKSVENVSVLWYK-NH2) | 1.6 µM (≈ 4.33 µg/mL) |  |  | 1.6 µM (≈ 4.33 µg/mL) | 3.1 µM (≈ 8.39 µg/mL) | 3.1 µM (≈ 8.39 µg/mL) | 1.6 µM (≈ 4.33 µg/mL) | 1.6 µM (≈ 4.33 µg/mL) | MBC S.a. ATTC 25923 [10]: 3.1 µM (≈ 8.39 µg/mL); Minimal bactericidal concentration (MBC) L. m. ([2]; ATCC 19111, 3 h, pH 7.4): 3.1 µM (≈ 8.39 µg/mL); Minimal bactericidal concentration (MBC) E. f. ([3]; ATCC 29212, 3 h, pH 7.4): 3.1 µM (≈ 8.39 µg/mL); MBC E.c. ATTC 25922 [11]: 1.6 µM (≈ 4.33 µg/mL); MBC E.c. ATTC 35218 [12]: 3.1 µM (≈ 8.39 µg/mL)
3 | KSKKPLFKIWKSVENVSVLW^5-MeOYK [NCR169C17–38C12,17/S-20W^5-MeO, NCR169C17–38C12,17/S analog with 5-methoxy tryptophan at position 20, forms not separated] |  | 3.1 µM | 3.1 µM |  |  |  |  |  | Minimal bactericidal concentration (MBC) S. a. ([1]; Staphylococcus aureus HNCMO112011, ~10^7 log phase bacteria, 3 h in PPB pH 7.4, peptide 25 to 0.125 μM 2-fold series, plated on LB agar, overnight 37 °C): 3.1 µM; MBC against most or all of the tested bacteria ([4]; summary over the tested bacterial species, 3 h in PPB pH 7.4): 3.1 µM; Minimal bactericidal concentration (MBC) S. e. ([5]; Salmonella enterica ATCC 13076, ~10^7 log phase bacteria, 3 h in PPB pH 7.4, peptide 25 to 0.125 μM 2-fold series, plated on LB agar, overnight 37 °C): 3.1 µM; Minimal bactericidal concentration (MBC) K. p. ([6]; Klebsiella pneumoniae NCTC 13440, ~10^7 log phase bacteria, 3 h in PPB pH 7.4, peptide 25 to 0.125 μM 2-fold series, plated on LB agar, overnight 37 °C): 3.1 µM; Minimal bactericidal concentration (MBC) P. a. ([7]; Pseudomonas aeruginosa ATCC 27853, ~10^7 log phase bacteria, 3 h in PPB pH 7.4, peptide 25 to 0.125 μM 2-fold series, plated on LB agar, overnight 37 °C): 0.8 µM; Minimal bactericidal concentration (MBC) E. c. ([8]; Escherichia coli ATCC 8739, ~10^7 log phase bacteria, 3 h in PPB pH 7.4, peptide 25 to 0.125 μM 2-fold series, plated on LB agar, overnight 37 °C): 3.1 µM; Minimal bactericidal concentration (MBC) A. b. ([9]; Acinetobacter baumannii ATCC 17978, ~10^7 log phase bacteria, 3 h in PPB pH 7.4, peptide 25 to 0.125 μM 2-fold series, plated on LB agar, overnight 37 °C): 3.1 µM
